Test results: patent publication US20260116920A1, “HUMAN TRANSFERRIN RECEPTOR BINDING PEPTIDE” (PEPTIDREAM INC., priority 2021, published 2026)
pKd: −log10 of the molar value. Starred links: 1 amine or outer side, 2 acyl side, 3 side chain; linkers in the order of their positions; H or OH if unused. Positions of bridges follow the written chain, without caps; N, C: chain ends. Non-standard residues stand in square brackets, D forms with d. Residues, ends and D or L forms follow the SMILES beside them. *: point of attachment. NMePhe(4-COOH) = CN[C@@H](Cc1ccc(C(=O)O)cc1)C(=O)O; X1 = O=C([C@H](Cc1cccc(C(=O)[*:3])c1)N[*:1])[*:2]; Nle(6-morpholino) = N[C@@H](CCCCN1CCOCC1)C(=O)O; Phe(3-COOH) = N[C@@H](Cc1cccc(C(=O)O)c1)C(=O)O; Trp(7-aza) = N[C@@H](Cc1c[nH]c2ncccc12)C(=O)O; NH(CH2CH2O)8Me = COCCOCCOCCOCCOCCOCCOCCOCCN*; NMePhe(3-Cl) = CN[C@@H](Cc1cccc(Cl)c1)C(=O)O; 3Pal(6-NH2) = Nc1ccc(C[C@H](N)C(=O)O)cn1; X2 = COCCOCCOCCOCCOCCOCCOCCOCCNC(=O)C*; NMeY = CN[C@@H](Cc1ccc(O)cc1)C(=O)O; 4Pal = N[C@@H](Cc1ccncc1)C(=O)O; PEG4 = NCCOCCOCCOCCOCCC(=O)O; Carboxymethyl = O=C(O)C*

These molecules were tested against T1, human transferrin receptor (hTfR) (Homo sapiens, UniProt P02786) (assay: Evaluation of molecular interaction between transferrin receptor (hTfR) and peptide using surface plasmon resonance (SPR)). Conditions: peptide with linker, surface plasmon resonance; read-out: SPR (KD class for binding to hTfR).
T1 construct: made in house
Assay type: binding
Summary of the method: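 Recombinant human TfR dimer (0.5 μM) was captured on a Ni-charged NTA chip and amine-coupled with EDC/NHS, then ethanolamine-capped. Peptides at 5–100 nM in HEPES pH 8.0 buffer with 150 mM NaCl, 0.05% Tween 20, 0.1% BSA and 1.0% DMSO were run by single-cycle kinetics; KD came from least-squares curve fitting.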

T1 sequence (P02786 89-760 limits assumed): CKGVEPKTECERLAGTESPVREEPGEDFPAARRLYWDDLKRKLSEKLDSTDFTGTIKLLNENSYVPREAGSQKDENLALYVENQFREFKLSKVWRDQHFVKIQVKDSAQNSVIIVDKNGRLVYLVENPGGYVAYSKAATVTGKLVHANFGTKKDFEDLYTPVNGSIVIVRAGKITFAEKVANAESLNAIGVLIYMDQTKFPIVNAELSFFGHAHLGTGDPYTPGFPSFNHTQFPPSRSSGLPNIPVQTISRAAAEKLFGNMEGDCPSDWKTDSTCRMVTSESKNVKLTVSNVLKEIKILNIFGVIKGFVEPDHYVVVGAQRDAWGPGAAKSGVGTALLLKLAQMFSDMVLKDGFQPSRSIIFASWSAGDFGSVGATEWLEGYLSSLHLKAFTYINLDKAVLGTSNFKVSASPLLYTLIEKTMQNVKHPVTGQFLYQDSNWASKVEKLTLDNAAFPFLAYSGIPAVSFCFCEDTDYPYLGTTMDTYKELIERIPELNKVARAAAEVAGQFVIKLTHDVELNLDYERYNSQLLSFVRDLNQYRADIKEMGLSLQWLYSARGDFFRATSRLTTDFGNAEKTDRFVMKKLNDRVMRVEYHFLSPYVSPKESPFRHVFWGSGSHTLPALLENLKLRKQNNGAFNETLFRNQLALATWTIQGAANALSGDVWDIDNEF

CC[C@H](C)[C@@H]1NC(=O)[C@H](Cc2ccc(OCC(=O)O)cc2)NC(=O)[C@H](Cc2ccc(N)nc2)NC(=O)[C@H](CC(N)=O)NC(=O)[C@H](Cc2c[nH]c3ncccc23)NC(=O)[C@H](C(C)C)NC(=O)[C@H](Cc2cccc(Cl)c2)N(C)C(=O)[C@H](C(C)C)NC(=O)[C@H](C)NC(=O)CSC[C@@H](C(=O)NCCOCCOCCOCCOCCC(N)=O)NC(=O)[C@H](Cc2ccc(O)cc2)N(C)C(=O)[C@H](Cc2ccncc2)NC(=O)[C@H](CCCNC(=N)N)NC(=O)[C@H](CCC(=O)NCCOCCOCCOCCOCCOCCOCCOCCOC)NC(=O)[C@H]([C@@H](C)CC)NC1=O [compound 224] and CC[C@H](C)[C@@H]1NC(=O)[C@H](Cc2ccc(OCC(=O)O)cc2)NC(=O)[C@H](Cc2ccc(O)cc2)NC(=O)[C@H](CC(N)=O)NC(=O)[C@H](Cc2c[nH]c3ncccc23)NC(=O)[C@H](C(C)C)NC(=O)[C@H](Cc2cccc(Cl)c2)N(C)C(=O)[C@H](C(C)C)NC(=O)[C@H](C)NC(=O)CSC[C@@H](C(=O)NCCOCCOCCOCCOCCC(N)=O)NC(=O)[C@H](Cc2ccc(O)cc2)N(C)C(=O)[C@H](Cc2cccc(C(=O)O)c2)NC(=O)[C@H](CCCNC(=N)N)NC(=O)[C@H](CCC(=O)NCCOCCOCCOCCOCCOCCOCCOCCOC)NC(=O)[C@H]([C@@H](C)CC)NC1=O [compound 230] fall in the same range of pKd: 7.00 to 9.00 for the first, 7.00 to 9.00 for the second.

Compared with CC[C@H](C)[C@@H]1NC(=O)[C@H](Cc2ccc(OCC(=O)O)cc2)NC(=O)[C@H](Cc2ccc(O)cc2)NC(=O)[C@H](CC(N)=O)NC(=O)[C@H](Cc2c[nH]c3ncccc23)NC(=O)[C@H](C(C)C)NC(=O)[C@H](Cc2cccc(Cl)c2)N(C)C(=O)[C@H](C(C)C)NC(=O)[C@H](C)NC(=O)CSC[C@@H](C(=O)NCCOCCOCCOCCOCCC(N)=O)NC(=O)[C@H](Cc2ccc(O)cc2)N(C)C(=O)[C@H](Cc2cccc(C(=O)O)c2)NC(=O)[C@H](CCCNC(=N)N)NC(=O)[C@H](CCC(N)=O)NC(=O)[C@H]([C@@H](C)CC)NC1=O [compound 225], CC[C@H](C)[C@@H]1NC(=O)[C@H](Cc2ccc(OCC(=O)O)cc2)NC(=O)[C@H](Cc2ccc(N)nc2)NC(=O)[C@H](CC(N)=O)NC(=O)[C@H](Cc2c[nH]c3ncccc23)NC(=O)[C@H](C(C)C)NC(=O)[C@H](Cc2cccc(Cl)c2)N(C)C(=O)[C@H](C(C)C)NC(=O)[C@H](C)NC(=O)CSC[C@@H](C(=O)NCCOCCOCCOCCOCCC(N)=O)NC(=O)[C@H](Cc2ccc(O)cc2)N(C)C(=O)[C@H](Cc2cccc(C(=O)O)c2)NC(=O)[C@H](CCCCN2CCOCC2)NC(=O)[C@H](CCC(=O)NCCOCCOCCOCCOCCOCCOCCOCCOC)NC(=O)[C@H]([C@@H](C)CC)NC1=O [compound 233] ({CH2CO}-AV[NMePhe(3-Cl)]V[Trp(7-aza)]N[3Pal(6-NH2)]Y(Carboxymethyl)IIE(NH(CH2CH2O)8Me)[Nle(6-morpholino)][Phe(3-COOH)][NMeY]C[PEG4]-NH2; thioether N-15) is lower in pKd: greater than 9.00 for the first, 7.00 to 9.00 for the second. The first binds more tightly here.

CC[C@H](C)[C@@H]1NC(=O)[C@H](Cc2ccc(OCC(=O)NCCOCCOCCOCCOCCOCCOCCOCCOC)cc2)NC(=O)[C@H](Cc2ccc(O)cc2)NC(=O)[C@H](CC(N)=O)NC(=O)[C@H](Cc2c[nH]c3ncccc23)NC(=O)[C@H](C(C)C)NC(=O)[C@H](Cc2cccc(Cl)c2)N(C)C(=O)[C@H](C(C)C)NC(=O)[C@H](C)NC(=O)CSC[C@@H](C(=O)NCCOCCOCCOCCOCCC(N)=O)NC(=O)[C@H](Cc2ccc(C(=O)NCCOCCOCCOCCOCCOCCOCCOCCOC)cc2)N(C)C(=O)[C@H](Cc2cccc(C(=O)NCCOCCOCCOCCOCCOCCOCCOCCOC)c2)NC(=O)[C@H](CCC(N)=O)NC(=O)[C@H](CCC(N)=O)NC(=O)[C@H]([C@@H](C)CC)NC1=O [compound 226] ({CH2CO}-AV[NMePhe(3-Cl)]V[Trp(7-aza)]NYY(X2)IIQQ[X1](NH(CH2CH2O)8Me)[NMePhe(4-COOH)](NH(CH2CH2O)8Me)C[PEG4]-NH2; thioether N-15) and CC[C@H](C)[C@@H]1NC(=O)[C@H](Cc2ccc(OC)cc2)NC(=O)[C@H](Cc2ccc(O)cc2)NC(=O)[C@H](CC(N)=O)NC(=O)[C@H](Cc2c[nH]c3ncccc23)NC(=O)[C@H](C(C)C)NC(=O)[C@H](Cc2cccc(Cl)c2)N(C)C(=O)[C@H](C(C)C)NC(=O)[C@H](C)NC(=O)CSC[C@@H](C(=O)NCCOCCOCCOCCOCCC(N)=O)NC(=O)[C@H](Cc2ccc(C(=O)NCCOCCOCCOCCOCCOCCOCCOCCOC)cc2)N(C)C(=O)[C@H](Cc2cccc(C(=O)NCCOCCOCCOCCOCCOCCOCCOCCOC)c2)NC(=O)[C@H](CCC(N)=O)NC(=O)[C@H](CCC(N)=O)NC(=O)[C@H]([C@@H](C)CC)NC1=O [compound 228] ({CH2CO}-AV[NMePhe(3-Cl)]V[Trp(7-aza)]NYY(Me)IIQQ[X1](NH(CH2CH2O)8Me)[NMePhe(4-COOH)](NH(CH2CH2O)8Me)C[PEG4]-NH2; thioether N-15) fall in the same range of pKd: 7.00 to 9.00 for the first, 7.00 to 9.00 for the second.

CC[C@H](C)[C@@H]1NC(=O)[C@H](Cc2ccc(OCC(=O)NCCOCCOCCOCCOCCOCCOCCOCCOC)cc2)NC(=O)[C@H](Cc2ccc(O)cc2)NC(=O)[C@H](CC(N)=O)NC(=O)[C@H](Cc2c[nH]c3ncccc23)NC(=O)[C@H](C(C)C)NC(=O)[C@H](Cc2cccc(Cl)c2)N(C)C(=O)[C@H](C(C)C)NC(=O)[C@H](C)NC(=O)CSC[C@@H](C(=O)NCCOCCOCCOCCOCCC(N)=O)NC(=O)[C@H](Cc2ccc(C(=O)NCCOCCOCCOCCOCCOCCOCCOCCOC)cc2)N(C)C(=O)[C@H](Cc2ccncc2)NC(=O)[C@H](CCC(N)=O)NC(=O)[C@H](CCC(N)=O)NC(=O)[C@H]([C@@H](C)CC)NC1=O [compound 227] ({CH2CO}-AV[NMePhe(3-Cl)]V[Trp(7-aza)]NYY(X2)IIQQ[4Pal][NMePhe(4-COOH)](NH(CH2CH2O)8Me)C[PEG4]-NH2; thioether N-15) and CC[C@H](C)[C@@H]1NC(=O)[C@H](Cc2ccc(OCC(=O)NCCOCCOCCOCCOCCOCCOCCOCCOC)cc2)NC(=O)[C@H](Cc2ccc(O)cc2)NC(=O)[C@H](CC(N)=O)NC(=O)[C@H](Cc2c[nH]c3ncccc23)NC(=O)[C@H](C(C)C)NC(=O)[C@H](Cc2cccc(Cl)c2)N(C)C(=O)[C@H](C(C)C)NC(=O)[C@H](C)NC(=O)CSC[C@@H](C(=O)NCCOCCOCCOCCOCCC(N)=O)NC(=O)[C@H](Cc2ccc(O)cc2)N(C)C(=O)[C@H](Cc2cccc(C(=O)NCCOCCOCCOCCOCCOCCOCCOCCOC)c2)NC(=O)[C@H](CCC(N)=O)NC(=O)[C@H](CCC(N)=O)NC(=O)[C@H]([C@@H](C)CC)NC1=O [compound 229] ({CH2CO}-AV[NMePhe(3-Cl)]V[Trp(7-aza)]NYY(X2)IIQQ[X1](NH(CH2CH2O)8Me)[NMeY]C[PEG4]-NH2; thioether N-15) fall in the same range of pKd: 7.00 to 9.00 for the first, 7.00 to 9.00 for the second.

Compared with CC[C@H](C)[C@@H]1NC(=O)[C@H](Cc2ccc(OCC(=O)O)cc2)NC(=O)[C@H](Cc2ccc(O)cc2)NC(=O)[C@H](CC(N)=O)NC(=O)[C@H](Cc2cn(CC(=O)O)c3ccccc23)NC(=O)[C@H](C(C)C)NC(=O)[C@H](Cc2cccc(Cl)c2)N(C)C(=O)[C@H](C(C)C)NC(=O)[C@H](C)NC(=O)CSC[C@@H](C(=O)NCCOCCOCCOCCOCCC(N)=O)NC(=O)[C@H](Cc2ccc(O)cc2)N(C)C(=O)[C@H](Cc2ccncc2)NC(=O)[C@H](CCCNC(=N)N)NC(=O)[C@H](CCC(=O)NCCOCCOCCOCCOCCOCCOCCOCCOC)NC(=O)[C@H]([C@@H](C)CC)NC1=O [compound 231], CC[C@H](C)[C@@H]1NC(=O)[C@H](Cc2ccc(OCC(=O)O)cc2)NC(=O)[C@H](Cc2ccc(O)cc2)NC(=O)[C@H](CC(N)=O)NC(=O)[C@H](Cc2c[nH]c3ncccc23)NC(=O)[C@H](C(C)C)NC(=O)[C@H](Cc2cccc(Cl)c2)N(C)C(=O)[C@H](C(C)C)NC(=O)[C@H](C)NC(=O)CSC[C@@H](C(=O)NCCOCCOCCOCCOCCC(N)=O)NC(=O)[C@H](Cc2ccc(O)cc2)N(C)C(=O)[C@H](CCC(=O)NCCOCCOCCOCCOCCOCCOCCOCCOC)NC(=O)[C@H](CCCCN2CCOCC2)NC(=O)[C@H](CCC(=O)NCCOCCOCCOCCOCCOCCOCCOCCOC)NC(=O)[C@H]([C@@H](C)CC)NC1=O [compound 234] ({CH2CO}-AV[NMePhe(3-Cl)]V[Trp(7-aza)]NYY(Carboxymethyl)IIE(NH(CH2CH2O)8Me)[Nle(6-morpholino)]E(NH(CH2CH2O)8Me)[NMeY]C[PEG4]-NH2; thioether N-15) is lower in pKd: 7.00 to 9.00 for the first, 6.00 to 7.00 for the second. The first binds more tightly here.

Compared with CC[C@H](C)[C@@H]1NC(=O)[C@H](Cc2ccc(OCC(=O)O)cc2)NC(=O)[C@H](Cc2ccc(N)nc2)NC(=O)[C@H](CC(N)=O)NC(=O)[C@H](Cc2c[nH]c3ncccc23)NC(=O)[C@H](C(C)C)NC(=O)[C@H](Cc2cccc(Cl)c2)N(C)C(=O)[C@H](C(C)C)NC(=O)[C@H](C)NC(=O)CSC[C@@H](C(=O)NCCOCCOCCOCCOCCC(N)=O)NC(=O)[C@H](Cc2ccc(O)cc2)N(C)C(=O)[C@H](CCC(=O)NCCOCCOCCOCCOCCOCCOCCOCCOC)NC(=O)[C@H](CCCNC(=N)N)NC(=O)[C@H](CCC(=O)NCCOCCOCCOCCOCCOCCOCCOCCOC)NC(=O)[C@H]([C@@H](C)CC)NC1=O [compound 232] ({CH2CO}-AV[NMePhe(3-Cl)]V[Trp(7-aza)]N[3Pal(6-NH2)]Y(Carboxymethyl)IIE(NH(CH2CH2O)8Me)RE(NH(CH2CH2O)8Me)[NMeY]C[PEG4]-NH2; thioether N-15), CC[C@H](C)[C@@H]1NC(=O)[C@H](Cc2ccc(OC)cc2)NC(=O)[C@H](Cc2ccc(O)cc2)NC(=O)[C@H](CC(N)=O)NC(=O)[C@H](Cc2c[nH]c3ncccc23)NC(=O)[C@H](C(C)C)NC(=O)[C@H](Cc2cccc(Cl)c2)N(C)C(=O)[C@H](C(C)C)NC(=O)[C@H](C)NC(=O)CSC[C@@H](C(=O)NCCOCCOCCOCCOCCC(N)=O)NC(=O)[C@H](Cc2ccc(O)cc2)N(C)C(=O)[C@H](CCC(=O)NCCOCCOCCOCCOCCOCCOCCOCCOC)NC(=O)[C@H](CCCCN2CCOCC2)NC(=O)[C@H](CCC(=O)NCCOCCOCCOCCOCCOCCOCCOCCOC)NC(=O)[C@H]([C@@H](C)CC)NC1=O [compound 235] ({CH2CO}-AV[NMePhe(3-Cl)]V[Trp(7-aza)]NYY(Me)IIE(NH(CH2CH2O)8Me)[Nle(6-morpholino)]E(NH(CH2CH2O)8Me)[NMeY]C[PEG4]-NH2; thioether N-15) is higher in pKd: 6.00 to 7.00 for the first, 7.00 to 9.00 for the second. The second binds more tightly here.
